This note sets out measurements from patent US10266497B2 (ABIDE THERAPEUTICS, INC., priority 2017, dated 2019).

In experiment [1] the target is T1, MAGL (Homo sapiens, UniProt Q99685).
T1 sequence (Q99685 1-303): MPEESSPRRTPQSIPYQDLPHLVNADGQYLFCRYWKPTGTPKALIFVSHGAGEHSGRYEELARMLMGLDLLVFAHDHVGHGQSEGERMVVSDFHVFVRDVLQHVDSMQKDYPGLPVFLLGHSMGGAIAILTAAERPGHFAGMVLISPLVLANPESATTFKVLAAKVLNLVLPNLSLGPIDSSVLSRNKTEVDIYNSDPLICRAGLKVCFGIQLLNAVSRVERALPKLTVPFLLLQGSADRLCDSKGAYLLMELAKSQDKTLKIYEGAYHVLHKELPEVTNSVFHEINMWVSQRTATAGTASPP
The experiment can be described thus: In vitro competitive activity-based protein profiling, MAGL, human. The conditions noted are these: for inhibition at 1 µM: read-out: MAGL % inh. 1 μM (human).

The target in experiment [2] is T2, FAAH (Mus musculus, UniProt O08914).
T2 sequence (O08914 1-579): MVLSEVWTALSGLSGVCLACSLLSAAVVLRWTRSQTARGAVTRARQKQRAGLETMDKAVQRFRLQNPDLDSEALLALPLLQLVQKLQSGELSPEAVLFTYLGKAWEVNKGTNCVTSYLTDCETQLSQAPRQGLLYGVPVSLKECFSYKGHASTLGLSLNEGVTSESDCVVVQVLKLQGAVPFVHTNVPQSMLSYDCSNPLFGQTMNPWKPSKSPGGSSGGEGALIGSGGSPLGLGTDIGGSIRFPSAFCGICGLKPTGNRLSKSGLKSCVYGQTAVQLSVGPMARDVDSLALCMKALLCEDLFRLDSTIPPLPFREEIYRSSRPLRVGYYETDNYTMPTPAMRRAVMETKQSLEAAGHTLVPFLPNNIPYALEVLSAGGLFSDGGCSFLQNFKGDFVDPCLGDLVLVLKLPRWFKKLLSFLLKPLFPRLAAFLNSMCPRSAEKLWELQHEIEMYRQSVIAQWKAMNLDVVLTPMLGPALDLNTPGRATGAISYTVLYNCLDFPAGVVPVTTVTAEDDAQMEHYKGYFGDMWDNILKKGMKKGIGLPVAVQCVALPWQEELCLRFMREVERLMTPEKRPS
Description: In vitro competitive activity-based protein profiling, FAAH, mouse. To be noted: read-out: FAAH % inh. 1 μM (mouse).

Experiment [3] has as its target T3, FAAH (Homo sapiens, UniProt O00519).
T3 sequence (O00519 1-579): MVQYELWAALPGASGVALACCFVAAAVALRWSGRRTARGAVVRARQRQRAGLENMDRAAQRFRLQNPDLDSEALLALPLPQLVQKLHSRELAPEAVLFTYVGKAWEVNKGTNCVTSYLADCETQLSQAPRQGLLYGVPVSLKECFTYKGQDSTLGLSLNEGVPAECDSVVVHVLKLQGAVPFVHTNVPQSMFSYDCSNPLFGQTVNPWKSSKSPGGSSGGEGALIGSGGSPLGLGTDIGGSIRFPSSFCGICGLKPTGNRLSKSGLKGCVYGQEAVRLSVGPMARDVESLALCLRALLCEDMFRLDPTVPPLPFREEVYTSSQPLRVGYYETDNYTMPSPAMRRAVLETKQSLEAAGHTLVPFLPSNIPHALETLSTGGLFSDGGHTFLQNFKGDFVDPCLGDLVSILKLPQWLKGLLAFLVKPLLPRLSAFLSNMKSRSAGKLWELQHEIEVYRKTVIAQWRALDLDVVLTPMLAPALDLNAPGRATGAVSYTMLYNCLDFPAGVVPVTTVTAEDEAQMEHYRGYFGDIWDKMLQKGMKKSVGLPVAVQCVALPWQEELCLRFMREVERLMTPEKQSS
Description: In vitro competitive activity-based protein profiling, FAAH, human. The conditions noted are these: for inhibition at 1 µM: read-out: FAAH % inh. 1 μM (human).

For experiment [4], the target named is T4, MAGL (Mus musculus, UniProt O35678).
T4 sequence (O35678 1-303): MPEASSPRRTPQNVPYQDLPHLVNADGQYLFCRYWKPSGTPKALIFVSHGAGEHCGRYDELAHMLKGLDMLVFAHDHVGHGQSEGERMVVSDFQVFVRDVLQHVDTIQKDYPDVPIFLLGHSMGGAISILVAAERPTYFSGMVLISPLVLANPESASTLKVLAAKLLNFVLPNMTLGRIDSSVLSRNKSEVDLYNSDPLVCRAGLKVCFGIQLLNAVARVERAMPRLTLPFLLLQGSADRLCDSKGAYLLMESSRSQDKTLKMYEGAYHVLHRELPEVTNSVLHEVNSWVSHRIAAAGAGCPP
Description: In vitro competitive activity-based protein profiling, MAGL, mouse. To be noted: read-out: MAGL % inh. 1 μM (mouse).

As to `Cc1cn(C(=O)N2CCN(Cc3cccc(Oc4ccc(Cl)cc4)c3)CC2)nc1C(=O)O` [Example 129, 1-(4-(3-(4-chlorophenoxy)benzyl)piperazine-1-carbonyl)-4-methyl-1H-pyrazole-3-carboxylic acid], the inhibition at 1 µM at MAGL [1], at FAAH [2], at FAAH [3] and on MAGL [4] was greater than 75% each time. The same compound yielded an IC50 at FAAH [3] of 0.1 to 1 µM.

In the case of `O=C(O)c1nn(C(=O)N2CC3CN(Cc4cc(N5CCCC5)cc(C(F)(F)F)c4)CC3C2)cc1Cl` (stereo not shown) [Example 151, 4-chloro-1-(5-(3-(pyrrolidin-1-yl)-5-(trifluoromethyl)benzyl)octahydro-pyrrolo[3,4-c]pyrrole-2-carbonyl)-1H-pyrazole-3-carboxylic acid], the inhibition at 1 µM at MAGL [1] is greater than 75%; on FAAH [2], 25 to 50%; on FAAH [3], 25 to 50%; at MAGL [4], greater than 75%.

Turning to `O=C(O)c1ccn(C(=O)N2CCC3(CCCN3Cc3ccc(C(F)(F)F)cc3-c3nnn[nH]3)CC2)n1` [Example 126, 1-(1-(2-(1H-tetrazol-5-yl)-4-(trifluoromethyl)benzyl)-1,8-diazaspiro[4.5]decane-8-carbonyl)-1H-pyrazole-3-carboxylic acid], the inhibition at 1 µM on MAGL [1] was in the range of 25 to 50%; at FAAH [2], 0 to 25%; at FAAH [3], 0 to 25%; at MAGL [4], 0 to 25%.

In the case of `O=C(O)c1nn(C(=O)N2CCC3(CC2)CN(Cc2cc(Cl)ccc2C(F)(F)F)C3)cc1Cl` [Example 134, 4-chloro-1-(2-(5-chloro-2-(trifluoromethyl)benzyl)-2,7-diazaspiro[3.5]non-ane-7-carbonyl)-1H-pyrazole-3-carboxylic acid], the inhibition at 1 µM was greater than 75% at MAGL [1], 50 to 75% at FAAH [2], greater than 75% at FAAH [3] and greater than 75% on MAGL [4]. The compound further showed an IC50 at FAAH [3] of 0.1 to 1 µM.

Regarding `O=C(O)c1ccn(C(=O)N2CCN(Cc3ccc(C(F)(F)F)cc3-c3nnco3)CC2)n1` [Example 69, 1-(4-(2-(1,3,4-oxadiazol-2-yl)-4-(trifluoromethyl)benzyl)piperazine-1-carbonyl)-1H-pyrazole-3-carboxylic acid], the inhibition at 1 µM at MAGL [1] was greater than 75%; on FAAH [2] it was 0 to 25%; on FAAH [3] it was 0 to 25%; on MAGL [4], greater than 75%.

In the case of `CN(Cc1ccc(Cl)c(N2CCCC2)c1)C1(C)CCN(C(=O)n2ccc(C(=O)O)n2)CC1` [Example 39, 1-(4-((4-chloro-3-(pyrrolidin-1-yl)benzyl)(methyl)amino)-4-methylpiperidine-1-carbonyl)-1H-pyrazole-3-carboxylic acid], the inhibition at 1 µM on MAGL [1] was greater than 75%; at FAAH [2], 0 to 25%; on FAAH [3], 0 to 25%; at MAGL [4] it was greater than 75%.

In the case of `O=C(O)c1ccn(C(=O)N2CCN(Cc3cccc(-c4ncccn4)c3)CC2)n1` [Example 64, 1-(4-(3-(pyrimidin-2-yl)benzyl)piperazine-1-carbonyl)-1H-pyrazole-3-carboxylic acid], the inhibition at 1 µM on MAGL [1] is greater than 75%; at FAAH [2], 0 to 25%; at FAAH [3] it was 0 to 25%; on MAGL [4] it was greater than 75%.

For `CN(Cc1cccc(Cl)c1N1CCCC1)C1(C)CCN(C(=O)n2ccc(C(=O)O)n2)CC1` [Example 47, 1-(4-((3-chloro-2-(pyrrolidin-1-yl)benzyl)(methyl)amino)-4-methylpiperidine-1-carbonyl)-1H-pyrazole-3-carboxylic acid], the inhibition at 1 µM was greater than 75% at MAGL [1], 0 to 25% at FAAH [2], 0 to 25% on FAAH [3] and greater than 75% at MAGL [4].

As for `Cc1cc(CN2CCC3(CCN(C(=O)n4ccc(C(=O)O)n4)CC3)C2)ccc1C(F)(F)F` [Example 155, 1-(2-(3-methyl-4-(trifluoromethyl)benzyl)-2,8-diazaspiro[4.5]decane-8-carbonyl)-1H-pyrazole-3-carboxylic acid], the IC50 on MAGL [1] was 0.1 to 1 µM; on FAAH [3], 1 to 10 µM. The inhibition at 1 µM is greater than 75% at MAGL [1], 0 to 25% at FAAH [2], 0 to 25% at FAAH [3] and greater than 75% at MAGL [4].

In the case of `O=C(O)c1ccn(C(=O)N2CC3CN(Cc4cccc(OC(F)(F)F)c4)CC3C2)n1` (stereo not shown) [Example 117, 1-(5-(3-(trifluoromethoxy)benzyl)octahydro-pyrrolo[3,4-c]pyrrole-2-carbonyl)-1H-pyrazole-3-carboxylic acid], the inhibition at 1 µM on MAGL [1] lay within 50 to 75%; at FAAH [2], 50 to 75%; on FAAH [3], 0 to 25%; at MAGL [4] it was 50 to 75%.

Consider `O=C(O)c1ccn(C(=O)N2CCN(Cc3ccc(C(F)(F)F)c(-c4nnco4)c3)CC2)n1` [Example 9, 1-(4-(3-(1,3,4-oxadiazol-2-yl)-4-(trifluoromethyl)benzyl)piperazine-1-carbonyl)-1H-pyrazole-3-carboxylic Acid], for which the inhibition at 1 µM at MAGL [1] is greater than 75%; on FAAH [2] it was 0 to 25%; at FAAH [3], 0 to 25%; at MAGL [4], greater than 75%.

Regarding `O=C(O)c1ccn(C(=O)N2CCN(Cc3ccc(C(F)(F)F)cc3-c3nnn[nH]3)CC2)n1` [Example 5, 1-(4-(2-(1H-Tetrazol-5-yl)-4-(trifluoromethyl)benzyl)piperazine-1-carbonyl)-1H-pyrazole-3-carboxylic Acid], the inhibition at 1 µM is greater than 75% on MAGL [1], 0 to 25% on FAAH [2], 0 to 25% at FAAH [3] and 50 to 75% at MAGL [4].

Take `NC(=O)c1ccn(C(=O)N2CCC3(CCN(Cc4cc(Cl)ccc4C(F)(F)F)C3)CC2)n1` [Example 99, 1-(2-(5-chloro-2-(trifluoromethyl)benzyl)-2,8-diazaspiro[4.5]decane-8-carbonyl)-1H-pyrazole-3-carboxamide]: the inhibition at 1 µM at MAGL [1], at FAAH [2], on FAAH [3] and on MAGL [4] was greater than 75% each time.

With `O=C(O)c1ccn(C(=O)N2CCC3(CCN(Cc4cc(F)cc(F)c4)C3)CC2)n1` [Example 79, 1-(2-(3,5-difluorobenzyl)-2,8-diazaspiro[4.5]decane-8-carbonyl)-1H-pyrazole-3-carboxylic acid], the inhibition at 10 µM is greater than 75% at MAGL [1] (read-out: MAGL % inh. (human) at 10 uM) and 50 to 75% on FAAH [3] (read-out: FAAH % inh. (human) at 10 uM). For the same compound, the inhibition at 1 µM on FAAH [2] and on MAGL [4] was 0 to 25% each time.

As for `C[C@H]1CCCCN1c1cc(C(F)(F)F)ccc1CN1CCN(C(=O)n2ccc(C(=O)O)n2)CC1` [Example 110, (S)-1-(4-(2-(2-methylpiperidin-1-yl)-4-(trifluoromethyl)benzyl)piperazine-1-carbonyl)-1H-pyrazole-3-carboxylic acid], the inhibition at 1 µM at MAGL [1] was greater than 75%; on FAAH [2], 0 to 25%; at FAAH [3], 0 to 25%; on MAGL [4], greater than 75%.

The term IC50 denotes the concentration needed to halve the response being measured.
